From patent publication US20170217982A1, “Compound isolated from Pseudolysimachion rotundum var. subintegrum, the composition comprising the same for treating allergic disease, inflammatory disease, asthma or chronic obstructive pulmonary disease and the use thereof” (YUNGJIN PHARMACEUTICAL CO., LTD, priority 2014, published 2017) come the findings set out here.

Data set [1] concerns COPD induced mice. Description: Anti-COPD effect in cigarette smoke + LPS COPD mouse model. It counts as in vivo, C57BL/6N mouse. The note with it: for activity of neutrophils elastase enzyme in BALF comparing with COPD induced group / reduced level of ROS in BALF comparing with COPD induced group / reduced level of neutrophils in BALF comparing with COPD induced group / reduced level of proteins in BALF comparing with COPD induced group / reduced level of IL-6 in BALF comparing with COPD induced group / reduced level of TNF-alpha in BALF comparing with COPD induced group: COPD mice; for reduced level of IL-6 in BALF comparing with COPD induced group / reduced level of TNF-alpha in BALF comparing with COPD induced group: ELISA. The method, then:
In order to determine the anti-COPD effect of inventive compounds in COPD animal model, following test was performed by using COPD induced mice as disclosed in the literature (Bhaysar, T. et al., J. Chronic Obstr. […]. Dis., 2008, 3, 477-481). Specific pathogen-free male C57BL/6N mouse (about 22-24 g), aged 6 weeks, which were routinely screened serologically for relevant respiratory pathogens, were purchased from Koatech Co. (koatech.co.kr, Seoul, Korea) and bred allowing to access freely to feed (antibiotic free, Samyang Oil & Feed Corp., Korea) and water in breeding room controlling the temperature of 22±2° C., and humidity of 55±15% at the light-dark cycle for 12 hours and acclimated with the experimental environment for 1 week. 2 kinds of test samples, […] ingredient: Roflumilast, 10 mg/kg) were dissolved in 0.5% sodium carboxymethyl cellulose ([…], Sigma-Aldrich, USA) and used as test samples. KS534, and Rolflumilast (ROF 11-492, HETERO, India) were orally administrated to the mice, 1 hour before prior the intratracheal instillation (i.t.). 3R4F Kentuchy Reference Cigarettes ([…], USA) was used as a standard cigarette for generating a cigarette smoke. The cigarette containing 9.4 mg of tar, 11 mg of TPM (total particle matter) and 12 mg of carbon monooxide per piece, was used after harmonizing with the temperature of 22±1° C. and humidity of 60±2% after opening for 48-72 hrs. The exposure of cigarette smoke was performed by using a cigarette smoke generator (DBL Co. Ltd., dhbiolink.com, Korea). The mice were divided into five groups: normal (NC), COPD (cigarette smoke with LPS intranasal instillation), Rof (10 mg/kg of roflumilast, p.o.+cigarette smoke with LPS intranasal instillation), and KS534-15 and 30 (15 mg/kg and 30 mg/kg of KS534, p.o.+cigarette smoke with LPS instillation, respectively). Exposure of cigarette smoke (one puff/min, 35 ml puff volume over 2 s, every 60 s, 8 cigarettes per day) was conducted using a cigarette smoke generator. The mice received 1 h of cigarette smoke exposure in an exposure chamber (50 cm×30 cm×30 cm) for 3 days. Roflumilast and piscroside C were administered to mice by oral lavage 1 h before cigarette smoke exposure for 3 days. LPS was intranasally instilled ([…] dissolved in 50 μL distilled water) under anesthesia 1 h after the final exposure to cigarette smoke. After the end of experiment, the blood, BALF, and pneumonocyte of each rat were isolated and collected to test. After finishing the experiment, rats were anaesthetized with Zoleti150 (3VX9, Virbac, France, p.o) and the blood was delivered through caudal veins. In order to isolate BALF from lung, the bronchus of right lung was ligated with suture and then performed to tracheostomy. IV-use catheter (16 GA, 3S-Cath, Dukwoo, Korea) was put into the bronchus, and both of bronchus and catheter (16 GA, 3S-Cath, Dukwoo, Korea) were fixed with suture. The injector containing 1 ml of DPBS 0.7 (Dubecco's phosphate-buffered saline, Invitrogen, USA) was connected thereto and DPBS was forced to circulate three times to isolate BALF. The right lung ligated with suture was isolated, fixed with 10% neutral formalin solution, and the remaining lung tissue was reserved in refrigerator at -70° C. The isolated BALF was centrifuged for 15 mins at 1500 rpm to prepare cell pellet and the supernatant was reserved in refrigerator at -70° C. for cytokine analysis. The cell pellet was suspended in DPBS, and the cell was attached to a slide glass using by cytospin centrifuge (CS03270047, Hanil, Korea). Diff-Quik staining (ZS1003, Sysmex, Japan) was performed and the cell was observed by optical microscopy (DM1000, Leica, German) to count the number of immunocyte in each test sample. The level of ROS in BALF isolated from the mice was determined by DCF-DA (dihydrodo chloro fluoresce indiacetate, 35854, Sigma-Aldrich, USA) and the final concentration of DCF-DA was adjusted to 20 μm in 200 μL to incubate 30 mins. […]
(In general: An ELISA detects its analyte on a solid surface through an enzyme-linked reagent.)

The test system of data set [2] is H292 cell. Nature of the data set: Evaluation of cytotoxicity in H292 cell (CCK-8). Type of data set: cell-based, human. The note with it: for H292 cell viability (%, mean ± variation): 24 hours, CCK-8. The protocol:
In order to determine the cytotoxicity of inventive compound, following preliminary test was performed by the method disclosed in the literature (Shiyama et al., Talanta, 1997, 44, 1299-1305; Tominaga et al., Anal. Commun., 1999, 36, 47-50).
HT1080 (CRL-12012), H292 (CRL-1848) and murine EL4 cells (TIB-39) were purchased from company (American Type Culture Collection).
HT1080 (CRL-12012) and murine EL4 cells were cultured in DMEM medium (SB30243.01, Dulbecco's modified Eagle's medium; DMEM, HyClone) supplemented with 10% FBS (Fetal Bovine Serum; Gibco) and antibiotic (100 units/ml penicillin+100 units/ml streptomycin). H292 cell was cultured in RPMI medium (SH30027.01, RPMI 1640, Gibco) supplemented with 10% FBS and antibiotic. The cells were cultures under the condition of humidified 5% CO2 atmosphere at 37° C. PMA (P8139, Phorbol 12-myristate 13-acetate) was purchased from the company (Sigma Chemical Co., St. Louis, Mo.) and TNF-α is from the company (300-01A, PeproTech, NJ USA Inc.) to use in the experiment.
H292 cell line, a human hung mucosal cancer cell line, was suspended in 10% FBS-supplemented RPMI medium in a concentration of 5×10^4 cells/ml, and 100 μl of the suspension was inoculated into 96 well plates to adhere cell to the plate for 12 hours. Various concentrations of test sample (KS 534 compound) were treated therewith and cultured for 24 hours. 10 μL of CCK-8 solution was mixed with 90 μL of the medium and 100 μL of solution was added to each well. After reacting from 30 mins to 4 hours, the absorbance of the solution was determined at 570 nm. The cell viability was calculated according to following Math formulae 1 based on negative control group treated with 0.2% DMSO and the result was shown in Table 2.
Cell viability (%)=OD 570 nm (test group)/OD 570 nm (negative control group)×100 Math formulae 1

For the compound `O=C(CO)O[C@@H]1O[C@@H]2C[C@H]3[C@H](OC(=O)c4ccc(O)c(O)c4)[C@@H](Cl)[C@@](O)(CO2)[C@@H]13` [KS-534, (3R,5S,5aS,6R,7S,8R,8aS)-8-chloro-8a-hydroxy-5-(2-hydroxyacetoxy) hexahydro-1H-3,6-methanocyclopenta[e][1,3]dioxepin-7-yl3,4-dihydroxybenzoate], in data set [1] (15 mg/kg p.o.), the “activity of neutrophils elastase enzyme in BALF comparing with COPD induced group” value is listed as “remarkably reduced”, the “reduced level of ROS in BALF comparing with COPD induced group” value stood at 19.5%, the “reduced level of neutrophils in BALF comparing with COPD induced group” value was found to be 26.3% and the “reduced level of proteins in BALF comparing with COPD induced group” value turned out to be 20.8%. Besides, in data set [1] (15 mg/kg p.o.), the “reduced level of IL-6 in BALF comparing with COPD induced group” value was found to be 35.8% and the “reduced level of TNF-alpha in BALF comparing with COPD induced group” value is reported as 18.3%. Further, in data set [1] (30 mg/kg p.o.), the “activity of neutrophils elastase enzyme in BALF comparing with COPD induced group” value was “remarkably reduced”, the “reduced level of ROS in BALF comparing with COPD induced group” value is on record as 27.5%, the “reduced level of neutrophils in BALF comparing with COPD induced group” value stood at 25.7% and the “reduced level of proteins in BALF comparing with COPD induced group” value was 28.5%. Besides, in data set [1] (30 mg/kg p.o.), the “reduced level of IL-6 in BALF comparing with COPD induced group” value worked out at 50.6% and the “reduced level of TNF-alpha in BALF comparing with COPD induced group” value worked out at 27.6%. The “invasion of the inflamed cells in lung tissue (histology)” value in data set [1] (30 mg/kg p.o., COPD mice (FIG. 14)) is listed as “significantly reduced”. The “H292 cell viability (%, mean ± variation)” value in data set [2] (2.5 μm) came to 101.88 ± 3.71%. The “H292 cell viability (%, mean ± variation)” value in data set [2] (5 μm) is on record as 102.46 ± 3.96%. Further, the “H292 cell viability (%, mean ± variation)” value in data set [2] (10 μm) is 99.89 ± 4.79%. Moreover, the “H292 cell viability (%, mean ± variation)” value in data set [2] (20 μm) amounted to 97.87 ± 2.92%. For the same compound, in data set [2] (at less than 20 μm), the “cytotoxicity in H292 cell” value is given as “did not show cytotoxicity”.
